Holding throughout (test): relative viability (nuclei count vs DMSO), 5 days (fraction); higher = more cells survive
Compound in the assay “Nelarabine + Lapatinib”: COc1nc(N)nc2c1ncn2[C@@H]1O[C@H](CO)[C@@H](O)[C@@H]1O [Nelarabine] + CS(=O)(=O)CCNCc1ccc(-c2ccc3ncnc(Nc4ccc(OCc5cccc(F)c5)c(Cl)c4)c3c2)o1 [Lapatinib] (partner 2 µM)
Summed up: (§1)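 Relative viability divides the nuclei count in treated wells by that in vehicle wells. Lung cancer cell lines were seeded in 1536-well plates, dosed by pin tool the next day, and fixed and stained after 5 days in one step with final 0.05% Triton X-100, 1% formaldehyde and 1 ug/ml Hoechst. Dosing was a single drug or a fixed anchor-drug dose plus five library-drug doses (not always all listed) in √10 steps, and values are medians of duplicate plates imaged at 4×.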

Compound in the assay “Nelarabine + Luminespib”: COc1nc(N)nc2c1ncn2[C@@H]1O[C@H](CO)[C@@H](O)[C@@H]1O [Nelarabine] + CCNC(=O)c1noc(-c2cc(C(C)C)c(O)cc2O)c1-c1ccc(CN2CCOCC2)cc1 [Luminespib] (partner 0.01 µM)
In short, it runs like this: as §1

Compound in the assay “Nelarabine + AZD7762”: COc1nc(N)nc2c1ncn2[C@@H]1O[C@H](CO)[C@@H](O)[C@@H]1O [Nelarabine] + NC(=O)Nc1cc(-c2cccc(F)c2)sc1C(=O)N[C@H]1CCCNC1 [AZD7762] (partner 0.2 µM)
In short, it runs like this:
as §1

Compound in the assay “Adavosertib + OSI-027”: C=CCn1c(=O)c2cnc(Nc3ccc(N4CCN(C)CC4)cc3)nc2n1-c1cccc(C(C)(C)O)n1 [Adavosertib] + COc1cccc2cc(-c3nc([C@H]4CC[C@H](C(=O)O)CC4)n4ncnc(N)c34)[nH]c12 [OSI-027] (partner 0.5 µM)
In short, it runs like this:
as §1

With NCI-H2126, the relative viability in the assay with Nelarabine + Lapatinib (first compound 0.01 µM) is 0.91; with Nelarabine + Lapatinib (first compound 0.03162 µM), 0.763; with Nelarabine + Lapatinib (first compound 0.1 µM), 0.72; in the assay with Nelarabine + Lapatinib (first compound 0.3162 µM) it was 0.754; with Nelarabine + Lapatinib (first compound 1 µM) it was 0.797; with Nelarabine + Luminespib (first compound 0.01 µM), 1.04. Besides, the relative viability worked out at 0.951 with Nelarabine + Luminespib (first compound 0.03162 µM); 0.822 with Nelarabine + Luminespib (first compound 0.1 µM); 0.892 with Nelarabine + Luminespib (first compound 0.3162 µM); 0.977 with Nelarabine + Luminespib (first compound 1 µM); 1.02 with Nelarabine + AZD7762 (first compound 0.01 µM); 1.07 in the assay with Nelarabine + AZD7762 (first compound 0.03162 µM). Besides, the relative viability with Nelarabine + AZD7762 (first compound 0.1 µM) was found to be 1.05; in the assay with Nelarabine + AZD7762 (first compound 0.3162 µM), 1.04; in the assay with Nelarabine + AZD7762 (first compound 1 µM), 0.997; in the assay with Adavosertib + OSI-027 (first compound 0.01 µM) it was 0.569; with Adavosertib + OSI-027 (first compound 0.03162 µM), 0.697; in the assay with Adavosertib + OSI-027 (first compound 0.1 µM) it was 0.769. The relative viability with Adavosertib + OSI-027 (first compound 0.3162 µM) is 0.727.

For NCI-H2170, the relative viability turned out to be 0.284 with Nelarabine + Lapatinib (first compound 0.01 µM); 0.232 with Nelarabine + Lapatinib (first compound 0.03162 µM); 0.262 with Nelarabine + Lapatinib (first compound 0.1 µM); 0.293 with Nelarabine + Lapatinib (first compound 0.3162 µM); 0.28 with Nelarabine + Lapatinib (first compound 1 µM); 1.17 in the assay with Nelarabine + Luminespib (first compound 0.01 µM). For the same cell line, the relative viability with Nelarabine + Luminespib (first compound 0.03162 µM) stood at 1.21; with Nelarabine + Luminespib (first compound 0.1 µM), 0.602; in the assay with Nelarabine + Luminespib (first compound 0.3162 µM) it was 0.746; with Nelarabine + Luminespib (first compound 1 µM), 0.465; in the assay with Nelarabine + AZD7762 (first compound 0.01 µM), 1.15; with Nelarabine + AZD7762 (first compound 0.03162 µM) it was 0.869. Moreover, the relative viability with Nelarabine + AZD7762 (first compound 0.1 µM) turned out to be 0.843; in the assay with Nelarabine + AZD7762 (first compound 0.3162 µM), 0.932; in the assay with Nelarabine + AZD7762 (first compound 1 µM), 0.709; with Adavosertib + OSI-027 (first compound 0.01 µM) it was 0.703; with Adavosertib + OSI-027 (first compound 0.03162 µM) it was 0.786; in the assay with Adavosertib + OSI-027 (first compound 0.1 µM), 0.632. For the same cell line, the relative viability with Adavosertib + OSI-027 (first compound 0.3162 µM) was determined as 0.597.

For the cell line NCI-H2347, the relative viability with Nelarabine + Lapatinib (first compound 0.01 µM) is 0.977; with Nelarabine + Lapatinib (first compound 0.03162 µM) it was 0.904; in the assay with Nelarabine + Lapatinib (first compound 0.1 µM), 0.94; with Nelarabine + Lapatinib (first compound 0.3162 µM), 0.954; with Nelarabine + Lapatinib (first compound 1 µM), 0.992; with Nelarabine + Luminespib (first compound 0.01 µM), 0.463. The relative viability was 0.743 with Nelarabine + Luminespib (first compound 0.03162 µM); 0.621 with Nelarabine + Luminespib (first compound 0.1 µM); 0.48 with Nelarabine + Luminespib (first compound 0.3162 µM); 0.478 in the assay with Nelarabine + Luminespib (first compound 1 µM); 0.915 with Nelarabine + AZD7762 (first compound 0.01 µM); 0.658 in the assay with Nelarabine + AZD7762 (first compound 0.03162 µM). In addition, the relative viability is 0.718 in the assay with Nelarabine + AZD7762 (first compound 0.1 µM); 0.506 with Nelarabine + AZD7762 (first compound 0.3162 µM); 0.769 in the assay with Nelarabine + AZD7762 (first compound 1 µM); 0.515 in the assay with Adavosertib + OSI-027 (first compound 0.01 µM); 0.414 with Adavosertib + OSI-027 (first compound 0.03162 µM); 0.473 in the assay with Adavosertib + OSI-027 (first compound 0.1 µM). Further, the relative viability in the assay with Adavosertib + OSI-027 (first compound 0.3162 µM) was 0.298.

As to NCI-H2405, the relative viability with Nelarabine + Lapatinib (first compound 0.01 µM) amounted to 1.14; in the assay with Nelarabine + Lapatinib (first compound 0.03162 µM) it was 1.13; in the assay with Nelarabine + Lapatinib (first compound 0.1 µM), 0.904; with Nelarabine + Lapatinib (first compound 0.3162 µM) it was 1.06; with Nelarabine + Lapatinib (first compound 1 µM), 1.04; with Nelarabine + Luminespib (first compound 0.01 µM) it was 0.697. In addition, the relative viability with Nelarabine + Luminespib (first compound 0.03162 µM) is 0.844; in the assay with Nelarabine + Luminespib (first compound 0.1 µM), 0.646; in the assay with Nelarabine + Luminespib (first compound 0.3162 µM), 0.762; with Nelarabine + Luminespib (first compound 1 µM), 0.696; in the assay with Nelarabine + AZD7762 (first compound 0.01 µM) it was 0.837; with Nelarabine + AZD7762 (first compound 0.03162 µM), 0.647. Besides, the relative viability in the assay with Nelarabine + AZD7762 (first compound 0.1 µM) was found to be 0.71; with Nelarabine + AZD7762 (first compound 0.3162 µM), 0.736; in the assay with Nelarabine + AZD7762 (first compound 1 µM) it was 0.81; with Adavosertib + OSI-027 (first compound 0.01 µM), 0.668; with Adavosertib + OSI-027 (first compound 0.03162 µM), 0.667; in the assay with Adavosertib + OSI-027 (first compound 0.1 µM), 0.669. In the assay with Adavosertib + OSI-027 (first compound 0.3162 µM), the relative viability is 0.628.

Turning to NCI-H3122, the relative viability with Nelarabine + Lapatinib (first compound 0.01 µM) turned out to be 1.08; with Nelarabine + Lapatinib (first compound 0.03162 µM), 0.891; with Nelarabine + Lapatinib (first compound 0.3162 µM), 1.08; in the assay with Nelarabine + Lapatinib (first compound 1 µM) it was 1.01; in the assay with Nelarabine + Luminespib (first compound 0.01 µM), 0.0966; in the assay with Nelarabine + Luminespib (first compound 0.03162 µM), 0.11. Further, the relative viability in the assay with Nelarabine + Luminespib (first compound 0.3162 µM) was found to be 0.12; with Nelarabine + Luminespib (first compound 1 µM), 0.115; in the assay with Nelarabine + AZD7762 (first compound 0.01 µM), 1.24; in the assay with Nelarabine + AZD7762 (first compound 0.03162 µM), 0.769; in the assay with Nelarabine + AZD7762 (first compound 0.3162 µM) it was 0.998; with Nelarabine + AZD7762 (first compound 1 µM), 0.969. The relative viability with Adavosertib + OSI-027 (first compound 0.01 µM) was found to be 0.972; with Adavosertib + OSI-027 (first compound 0.03162 µM), 0.914; with Adavosertib + OSI-027 (first compound 0.1 µM) it was 1.07; with Adavosertib + OSI-027 (first compound 0.3162 µM) it was 1.06.

Consider PC-3 [JPC-3], for which the relative viability was found to be 0.508 with Nelarabine + Lapatinib (first compound 0.01 µM); 0.373 with Nelarabine + Lapatinib (first compound 0.03162 µM); 0.439 in the assay with Nelarabine + Lapatinib (first compound 0.1 µM); 0.451 with Nelarabine + Lapatinib (first compound 0.3162 µM); 0.436 in the assay with Nelarabine + Lapatinib (first compound 1 µM); 0.651 in the assay with Nelarabine + Luminespib (first compound 0.01 µM). Moreover, the relative viability with Nelarabine + Luminespib (first compound 0.03162 µM) was found to be 0.429; with Nelarabine + Luminespib (first compound 0.1 µM), 0.697; with Nelarabine + Luminespib (first compound 0.3162 µM), 0.703; with Nelarabine + Luminespib (first compound 1 µM), 0.601; with Nelarabine + AZD7762 (first compound 0.01 µM), 0.9; in the assay with Nelarabine + AZD7762 (first compound 0.03162 µM), 0.764. Besides, the relative viability with Nelarabine + AZD7762 (first compound 0.1 µM) is 0.761; in the assay with Nelarabine + AZD7762 (first compound 0.3162 µM), 0.957; with Nelarabine + AZD7762 (first compound 1 µM), 0.792; with Adavosertib + OSI-027 (first compound 0.01 µM) it was 0.805; in the assay with Adavosertib + OSI-027 (first compound 0.03162 µM) it was 0.743; in the assay with Adavosertib + OSI-027 (first compound 0.1 µM), 0.775. In addition, in the assay with Adavosertib + OSI-027 (first compound 0.3162 µM), the relative viability came out at 0.731.

Regarding PC-14, the relative viability is 0.327 with Nelarabine + Lapatinib (first compound 0.01 µM); 0.342 in the assay with Nelarabine + Lapatinib (first compound 0.03162 µM); 0.307 with Nelarabine + Lapatinib (first compound 0.1 µM); 0.328 with Nelarabine + Lapatinib (first compound 0.3162 µM); 0.353 with Nelarabine + Lapatinib (first compound 1 µM); 0.145 in the assay with Nelarabine + Luminespib (first compound 0.01 µM). Further, the relative viability is 0.177 with Nelarabine + Luminespib (first compound 0.03162 µM); 0.118 with Nelarabine + Luminespib (first compound 0.1 µM); 0.178 with Nelarabine + Luminespib (first compound 0.3162 µM); 0.151 with Nelarabine + Luminespib (first compound 1 µM); 0.382 with Nelarabine + AZD7762 (first compound 0.01 µM); 0.319 with Nelarabine + AZD7762 (first compound 0.03162 µM). Also, the relative viability with Nelarabine + AZD7762 (first compound 0.1 µM) was 0.447; in the assay with Nelarabine + AZD7762 (first compound 0.3162 µM), 0.417; with Nelarabine + AZD7762 (first compound 1 µM), 0.304; with Adavosertib + OSI-027 (first compound 0.01 µM), 0.916; with Adavosertib + OSI-027 (first compound 0.03162 µM), 0.835; with Adavosertib + OSI-027 (first compound 0.1 µM), 0.846. The relative viability with Adavosertib + OSI-027 (first compound 0.3162 µM) is 0.114.

Take RERF-LC-KJ: the relative viability with Nelarabine + Lapatinib (first compound 0.01 µM) stood at 0.912; in the assay with Nelarabine + Lapatinib (first compound 0.03162 µM), 0.99; with Nelarabine + Lapatinib (first compound 0.1 µM), 1.01; with Nelarabine + Lapatinib (first compound 0.3162 µM) it was 0.88; in the assay with Nelarabine + Lapatinib (first compound 1 µM), 0.876; with Nelarabine + Luminespib (first compound 0.01 µM), 1.41. Also, the relative viability with Nelarabine + Luminespib (first compound 0.03162 µM) came to 1.31; with Nelarabine + Luminespib (first compound 0.1 µM), 1.34; with Nelarabine + Luminespib (first compound 0.3162 µM), 1.27; with Nelarabine + Luminespib (first compound 1 µM), 1.31; with Nelarabine + AZD7762 (first compound 0.01 µM), 0.993; in the assay with Nelarabine + AZD7762 (first compound 0.03162 µM), 1.11. Besides, the relative viability with Nelarabine + AZD7762 (first compound 0.1 µM) stood at 1.02; with Nelarabine + AZD7762 (first compound 0.3162 µM), 1.15; in the assay with Nelarabine + AZD7762 (first compound 1 µM), 1.08; in the assay with Adavosertib + OSI-027 (first compound 0.01 µM) it was 0.561; in the assay with Adavosertib + OSI-027 (first compound 0.03162 µM), 0.512; in the assay with Adavosertib + OSI-027 (first compound 0.1 µM) it was 0.555. For the same cell line, the relative viability with Adavosertib + OSI-027 (first compound 0.3162 µM) was 0.465.

(Values after the supplement of paper PMC10307832.)
